How the values were obtained:
[1] = molecular target: recombinant E. coli Cys-TrxR (Escherichia coli, UniProt P0A9P4); assay: Kinetic analysis of HOSCN metabolism and inhibition; type: biochemical
From the text: FIGS. 3A-3B. Kinetic analysis of HOSCN metabolism by recombinant mouse Sec-TrxR and recombinant E. coli Cys-TrxR. […] Sec-TrxR forms that lack a selenocysteine (Sec489Cys) or truncated by the last 8 amino acids (D8) had diminished activity.

E. coli: AB1157 = assay: Viability after HOSCN exposure
P. aeruginosa: AMT0009L [2] = assay: Viability after HOSCN exposure; settings: late disease antibiotic-resistant CF isolate
P. aeruginosa: AMT0145L = assay: Viability after HOSCN exposure; settings: late disease antibiotic-resistant CF isolate
P. aeruginosa: AMT0105L = assay: Viability after HOSCN exposure; settings: late disease antibiotic-resistant CF isolate
P. aeruginosa: AMT0058L = assay: Viability after HOSCN exposure; settings: late disease antibiotic-resistant CF isolate
P. aeruginosa: AMT0009L [3] = assay: HOSCN reductase activity
MRSA 46 = assay: Bacterial sensitivity towards HOSCN killing; type: cell-based, methicillin-resistant Staphylococcus aureus (MRSA); settings: MRSA 46, CF sputum isolate; HOSCN flux for 2 hours, GOX/LPO/SCN system, pH 7.4
Method: (§1) FIGS. 11A-11D. […] A lactoperoxidase (LPO) system was used to generate increasing fluxes of either HOSCN or HOSeCN in presence of 400 μM of either ^−SCN or ^−SeCN. LPO in the presence of a hydrogen peroxide generating system (glucose oxidase, GOX) can convert both thiocyanate and selenocyante to their respective hypopseudohalous acid species (HOSCN and HOSeCN) that are biocides. […] Bacterial inoculums (10^6 colony forming units, CFU) were incubated with host defense system for 2 hours at room temperature and bacteria were plated on LB agar plates and cell viability was determined by dilution and counting CFUs.
(§2) LPO in the presence of a hydrogen peroxide generating system (glucose oxidase, GOX) can convert both thiocyanate and selenocyante to their respective hypopseudohalous acid species (HOSCN and HOSeCN) that are biocides. […] Bacterial inoculums (10^6 colony forming units, CFU) were incubated with host defense system for 2 hours at room temperature and bacteria were plated on LB agar plates and cell viability was determined by dilution and counting CFUs. Lethal concentrations that kill 50% of bacteria (LC50) were determined by non-linear curve fitting the data.
(§3) Bacteria were incubated for 2 hour with LPO, ^−SCN or SeCN, glucose and increasing amounts of GOX. The flux (HOX) of either HOSCN or HOSeCN was determined from standard curves of GOX/LPO and either HOSCN or HOSeCN. LC50 values were determined by curve fitting the data with nonlinear regression of log (agonist) vs normalized response.

MRSA 45 = assay: Bacterial sensitivity towards HOSCN killing; type: cell-based, methicillin-resistant Staphylococcus aureus (MRSA); settings: MRSA 45, CF sputum isolate; HOSCN flux for 2 hours, GOX/LPO/SCN system, pH 7.4
Method: as §1, §2, §3

MRSA 44 = assay: Bacterial sensitivity towards HOSCN killing; type: cell-based, methicillin-resistant Staphylococcus aureus (MRSA); settings: MRSA 44, CF sputum isolate; HOSCN flux for 2 hours, GOX/LPO/SCN system, pH 7.4
Method: as §1, §2, §3

MRSA 43 = assay: Bacterial sensitivity towards HOSCN killing; type: cell-based, methicillin-resistant Staphylococcus aureus (MRSA); settings: MRSA 43, CF sputum isolate; HOSCN flux for 2 hours, GOX/LPO/SCN system, pH 7.4
Method: as §1, §2, §3

P. aeruginosa: AMT0294L = assay: Viability after HOSCN exposure; settings: late disease antibiotic-resistant CF isolate
[4] = molecular target: Sec-containing TrxR2 (Sec-TrxR2) (Mus musculus, UniProt Q9JLT4); assay: Inactivation of TrxR by oxidants; type: biochemical
Sequence of Sec-containing TrxR2 (Sec-TrxR2) (Q9JLT4 35-524): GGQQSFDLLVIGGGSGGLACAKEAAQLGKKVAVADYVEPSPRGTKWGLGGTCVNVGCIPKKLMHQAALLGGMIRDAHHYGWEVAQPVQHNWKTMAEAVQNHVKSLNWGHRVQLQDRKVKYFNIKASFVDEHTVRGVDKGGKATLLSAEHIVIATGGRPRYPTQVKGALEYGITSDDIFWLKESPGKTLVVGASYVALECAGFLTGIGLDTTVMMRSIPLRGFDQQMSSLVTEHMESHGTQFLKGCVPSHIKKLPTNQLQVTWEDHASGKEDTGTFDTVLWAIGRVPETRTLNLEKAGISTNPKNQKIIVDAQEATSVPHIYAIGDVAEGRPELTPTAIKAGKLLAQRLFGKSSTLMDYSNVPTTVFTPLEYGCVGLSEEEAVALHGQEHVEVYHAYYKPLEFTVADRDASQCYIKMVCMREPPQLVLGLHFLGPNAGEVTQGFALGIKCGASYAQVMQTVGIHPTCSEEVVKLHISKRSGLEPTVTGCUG
Method: (§4) Based on data, it is expected that Sec-TrxR1 is able to metabolize both HOSCN and HOSeCN but not HOCl, and that Cys-TrxR's is unable to metabolize these oxidants. The active site Cys or Sec residue of each respective enzyme is oxidized to either Cys-SO2^− or Sec-SeO2^−. The Cys-TrxR cannot recover from this oxidation while the Sec-TrxR can. To test this, an inactivation assay is performed followed by structural analysis of the protein by MS. In the inactivation assay, (i) enzymes are reduced with NADPH, (ii) the enzymes are treated with oxidant followed by desalting to remove oxidant, and (iii) the enzyme is assayed for activity. […] The proteins are proteolyzed followed by LC-MS analyses. The LC-MS profiles are compared to control samples not treated with oxidant. This determines the exact mechanism of inactivation for each enzyme. […] This would explain why HOCl is highly inflammatory (nonspecific oxidation), and why HOSCN is used as a bactericide because it can rapidly inactivate proteins/enzyme by oxidation of sulfur amino acids (Cys, Met), but can be metabolized by the host cell by Sec-TrxR.

DmTrxR (containing Cys) = DmTrxR (containing Cys) (Drosophila melanogaster, UniProt P91938); assay: Inactivation of TrxR by oxidants; type: biochemical
Sequence of DmTrxR (containing Cys) (P91938 112-596 limits assumed): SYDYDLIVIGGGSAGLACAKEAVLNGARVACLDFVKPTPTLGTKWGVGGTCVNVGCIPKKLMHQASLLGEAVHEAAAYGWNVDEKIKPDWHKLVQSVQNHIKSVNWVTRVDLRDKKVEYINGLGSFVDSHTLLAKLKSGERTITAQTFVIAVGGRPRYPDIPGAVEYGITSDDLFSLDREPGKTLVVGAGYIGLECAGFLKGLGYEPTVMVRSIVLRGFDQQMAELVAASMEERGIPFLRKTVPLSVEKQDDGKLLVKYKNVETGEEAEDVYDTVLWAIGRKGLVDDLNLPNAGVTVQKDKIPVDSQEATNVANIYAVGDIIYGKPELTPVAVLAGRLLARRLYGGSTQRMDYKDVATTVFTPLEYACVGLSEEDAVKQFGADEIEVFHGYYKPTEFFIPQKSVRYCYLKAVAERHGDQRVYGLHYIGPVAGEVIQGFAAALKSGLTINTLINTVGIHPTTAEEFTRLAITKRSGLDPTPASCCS
Method: as §4

[5] = molecular target: purified E. coli Cys-TrxR (Escherichia coli, UniProt P0A9P4); assay: Sulfenic acid (dimedone label) formation, western blot; type: biochemical; settings: 5 minutes exposure; reversible by NAC
Sequence of purified E. coli Cys-TrxR (P0A9P4 whole entry): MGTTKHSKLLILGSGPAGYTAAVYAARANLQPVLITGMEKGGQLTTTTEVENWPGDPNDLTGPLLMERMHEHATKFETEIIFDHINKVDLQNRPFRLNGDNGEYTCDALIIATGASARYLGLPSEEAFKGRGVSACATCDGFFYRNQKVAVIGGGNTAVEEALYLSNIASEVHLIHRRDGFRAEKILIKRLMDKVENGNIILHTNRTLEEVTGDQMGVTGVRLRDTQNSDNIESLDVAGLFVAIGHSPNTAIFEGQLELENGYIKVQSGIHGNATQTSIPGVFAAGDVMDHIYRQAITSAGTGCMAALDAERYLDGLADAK
Method: FIG. 15. Western blot of sulfenic acid (dimedione label) formation on purified E. coli Cys-TrxR after 5 minutes HOSCN exposure (molar ratios label each lane) or plus 1 minute PBS or N-acetylcysteine (NAC). For lane 8, H2O2 was used instead of HOSCN.
HOSCN is an interesting oxidant due to its affinity for only very acidic thiol groups on proteins (Barrett, T. J., et al. (2012) Inactivation of thiol-dependent enzymes by hypothiocyanous acid: role of sulfenyl thiocyanate and sulfenic acid intermediates. Free Radic Biol Med 52, 1075-1085). This property of HOSCN allows it to diffuse much easier to distant targets. Cys-TrxR has two cysteine residues in its active site that are acidic and it is expected that HOSCN oxidizes them as part of its mechanism of inactivation. Data has shown that dimedone labels sulfenic acid residues in E. coli Cys-TrxR upon selective thiol oxidation by HOSCN (FIG. 15). […] This probe can be used in tandem with western blotting and LC-MS approaches to characterize thiol oxidation of bacterial Cys-TrxRs. Although previous studies have looked at potential bacteria targets for oxidative inactivation by oxidants produced by haloperoxidases, Cys-TrxR was not previously identified (Tenovuo, J., and Pruitt, K. M. (1984) Relationship of the human salivary peroxidase system to oral health. J Oral Pathol 13, 573-584).

Sequence of recombinant E. coli Cys-TrxR (P0A9P4 whole entry, the tested form may be a part): as the sequence (P0A9P4 whole entry) above

## N#CSO [HOSCN, hypothiocyanite]
[1]
  IC50: 2750 nM
[1]; similar conditions
  HOSCN metabolism activity: no measurable activity
E. coli: AB1157
  Viability (%): 0%
P. aeruginosa: AMT0009L [2]
  Viability (%): 4.2 ± 2.1%
P. aeruginosa: AMT0145L
  Viability (%): 24.8 ± 2.5%
P. aeruginosa: AMT0105L
  Viability (%): 0%
P. aeruginosa: AMT0058L
  Viability (%): 0.7 ± 0.4%
P. aeruginosa: AMT0009L [3]
  Apparent Vmax (HOSCN reductase activity): 0.8 ± 0.3 nmol/mg/min
MRSA 46
  HOSCN IC50: 10 µM/h
MRSA 45
  HOSCN IC50: 24 µM/h
MRSA 44
  HOSCN IC50: 260 µM/h
MRSA 43
  HOSCN IC50: 450 µM/h
P. aeruginosa: AMT0294L
  Viability (%): 0%
[4]
  Inactivation of Sec-TrxR2 by oxidant: resists inactivation
DmTrxR (containing Cys)
  Inactivation of DmTrxR by oxidant: is inactivated
[5]
  Oxidation of Cys-TrxR: rapidly oxidized

From patent US11986450B2, “Methods and compositions for treating infection and inflammation with selenocyanate” (National Jewish Health, priority 2017, dated 2024)
